Source: paper PMC4171110, “BdcA, a Protein Important for Escherichia coli Biofilm Dispersal, Is a Short-Chain Dehydrogenase/Reductase that Binds Specifically to NADPH” (PLoS ONE, 2014)
Values belong to the molecule of their own block, whether it stands above or below them.

What was measured:
BdcA [1] = molecular target: T1, BdcA (Escherichia coli, UniProt P39333); assay: isothermal titration calorimetry; type: binding
T1 construct: full-length; N-terminal Thio6-His6 tag removed with TEV protease; expressed in E. coli BL21-Gold (DE3)
T1 sequence (P39333 1-237): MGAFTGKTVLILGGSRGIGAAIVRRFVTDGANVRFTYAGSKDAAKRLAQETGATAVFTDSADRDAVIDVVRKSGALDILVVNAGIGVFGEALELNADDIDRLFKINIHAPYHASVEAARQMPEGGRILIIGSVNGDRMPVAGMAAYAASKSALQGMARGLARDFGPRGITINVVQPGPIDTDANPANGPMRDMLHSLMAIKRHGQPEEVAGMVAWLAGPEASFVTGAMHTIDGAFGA
Description: isothermal titration calorimetry on BdcA

BdcA [2] = molecular target: T1, BdcA; assay: differential scanning fluorimetry (SYPRO Orange); type: binding; conditions: 20 mM HEPES pH 7.5; 8 µM protein, 160 µM ligand
Description: differential scanning fluorimetry (SYPRO Orange) on BdcA

[3] = molecular target: the molecule itself; assay: SEC; Superdex 75 26/60, 20 mM Tris pH 7.5, 100 mM NaCl, 0.5 mM TCEP; elution volume compared with MW standards (158, 44, 17 kDa)

- Kd (BdcA [1]): 25.9 ± 4.1 µM
- ΔTm (°C) (BdcA [2]): 3.1 °C
Molecule: NC(=O)C1=CN([C@@H]2O[C@H](COP(=O)(O)OP(=O)(O)OC[C@H]3O[C@@H](n4cnc5c(N)ncnc54)[C@H](OP(=O)(O)O)[C@@H]3O)[C@@H](O)[C@H]2O)C=CC1 [NADPH]

- ΔTm (°C) (BdcA [2]): 1.0 °C
Molecule: NC(=O)c1ccc[n+]([C@@H]2O[C@H](COP(=O)(O)OP(=O)(O)OC[C@H]3O[C@@H](n4cnc5c(N)ncnc54)[C@H](OP(=O)(O)O)[C@@H]3O)[C@@H](O)[C@H]2O)c1 [NADP]

B1: BdcA (enzyme, E. coli, UniProt P39333 1-237, looked up)
chain: T1 sequence (P39333 1-237)
notes: BdcA (YjgI), short-chain dehydrogenase/reductase of E. coli, full-length bdcA gene in the RP1B vector; monomer MW 24.9 kDa as printed; Tag removed with TEV protease; Homodimer in the crystal and in solution; also called YjgI; BcdA; source: E. coli BL21-Gold (DE3), purified (HisTrap, TEV cleavage, Ni-NTA, SEC); not shown: Thio6-His6, N-terminal, cleaved
- stoichiometry N [3]: 2
